Assay results published in PubChem BioAssay AID252 (DTP/NCI, 2004).
Where “and” joins values, the source holds several entries; their conditions need not be identical. Equal entries are not always repeated. Inconclusive results and toxic doses are left out.

System: BDF1 mice, intracerebral L1210 leukemia, survival T/C
Assay: NCI In Vivo Anticancer Drug Screen. Data for tumor model L1210 Leukemia (intracerebral) in B6D2F1 (BDF1) mice
Details: higher = longer survival
Experimental: The antitumor activity of compounds was measured in mice bearing transplantable tumors. Survival or tumor size were measured and the results are expressed as the measurement made in the treated group (T) divided by the measurement made in the vehicle treated control group (C). The tumor model used in this assay is L1210 Leukemia (intracerebral) in B6D2F1 (BDF1) mice

[1] = endpoint: median survival time, dose: 10.0 mg/kg/injection, schedule: Q01DX009 (ip), vehicle: saline with Tween-80
[2] = endpoint: median survival time, dose: 20.0 mg/kg/injection, schedule: Q01DX009 (ip), vehicle: saline with Tween-80

With `CS(C)=O` the T/C (endpoint: mean survival time, dose: 0.5 mg/kg/injection, schedule: Q#C X009 (adlb), vehicle: water) was 102 % of control, the T/C (endpoint: mean survival time, dose: 1.0 mg/kg/injection, schedule: Q#C X009 (adlb), vehicle: water) was 102 % of control and the T/C (endpoint: mean survival time, dose: 2.0 mg/kg/injection, schedule: Q#C X009 (adlb), vehicle: water) was 101 % of control. The T/C (endpoint: mean survival time, dose: 4.0 mg/kg/injection, schedule: Q#C X009 (adlb), vehicle: water) was 101 % of control, the T/C (endpoint: mean survival time, dose: 8.0 mg/kg/injection, schedule: Q#C X009 (adlb), vehicle: water) was 98 % of control and the T/C (endpoint: mean survival time, dose: 10.0 mg/kg/injection, schedule: Q01DX001 (ip), vehicle: DMSO) was 110 % of control. For the same compound, the T/C (endpoint: mean survival time, dose: 25.0 mg/kg/injection, schedule: Q01DX001 (ip), vehicle: DMSO) was 101 % of control, the T/C (endpoint: mean survival time, dose: 35.0 mg/kg/injection, schedule: Q01DX001 (ip), vehicle: DMSO) was 101 % of control and the T/C (endpoint: mean survival time, dose: 50.0 mg/kg/injection, schedule: Q01DX001 (ip), vehicle: DMSO) was 101 % of control. For the same compound, the T/C (endpoint: mean survival time, dose: 0.5 % drug in feed or water or air, schedule: Q#C X009 (oral), vehicle: other) was 102 % of control, the T/C (endpoint: mean survival time, dose: 1.0 % drug in feed or water or air, schedule: Q#C X009 (oral), vehicle: other) was 102 % of control and the T/C (endpoint: mean survival time, dose: 1.0 grams/kg/injection, schedule: Q01DX001 (ip), vehicle: Klucel (hydroxypropylcellulose) (HPC)) was 110 % of control. For the same compound, the T/C (endpoint: mean survival time, dose: 2.0 % drug in feed or water or air, schedule: Q#C X009 (oral), vehicle: other) was 101 % of control, the T/C (endpoint: mean survival time, dose: 2.1 grams/kg/injection, schedule: Q01DX001 (ip), vehicle: Klucel (hydroxypropylcellulose) (HPC)) was 101 % of control and the T/C (endpoint: mean survival time, dose: 4.0 % drug in feed or water or air, schedule: Q#C X009 (oral), vehicle: other) was 101 % of control. The T/C (endpoint: mean survival time, dose: 8.0 % drug in feed or water or air, schedule: Q#C X009 (oral), vehicle: other) was 98 % of control, the T/C (endpoint: median survival time, dose: 1.0 mg/kg/injection, schedule: Q#C X009 (oral), vehicle: water) was 103 % of control and 118 % of control and the T/C (endpoint: median survival time, dose: 2.0 mg/kg/injection, schedule: Q#C X009 (oral), vehicle: water) was 101 % of control (2×) and 105 % of control. The T/C (endpoint: median survival time, dose: 4.0 mg/kg/injection, schedule: Q#C X009 (oral), vehicle: water) was 103 % of control and 107 % of control and 98 % of control and the T/C (endpoint: median survival time, dose: 8.0 mg/kg/injection, schedule: Q#C X009 (oral), vehicle: water) was 101 % of control and 83 % of control and 97 % of control.
For `CC[n+]1ccc(Nc2ccc(NC(=O)c3ccc(Nc4cc[n+](CC)c5ccc(N)cc45)cc3)cc2)cc1`, the T/C (endpoint: mean survival time, dose: 1.0 mg/kg/injection, schedule: Q01DX009 (ip), vehicle: water) was 100 % of control, the T/C (endpoint: mean survival time, dose: 2.0 mg/kg/injection, schedule: Q01DX009 (ip), vehicle: water) was 102 % of control and the T/C (endpoint: mean survival time, dose: 4.0 mg/kg/injection, schedule: Q01DX009 (ip), vehicle: water) was 111 % of control. For the same compound, the T/C (endpoint: mean survival time, dose: 8.0 mg/kg/injection, schedule: Q01DX009 (ip), vehicle: water) was 97 % of control.
For `COc1cccnc1/C=N/NC(N)=S`, the T/C (endpoint: median survival time, dose: 1.5 mg/kg/injection, schedule: Q01DX009 (ip), vehicle: saline with Tween-80) was 101 % of control, the T/C (endpoint: median survival time, dose: 3.0 mg/kg/injection, schedule: Q01DX009 (ip), vehicle: saline with Tween-80) was 103 % of control and the T/C (endpoint: median survival time, dose: 6.0 mg/kg/injection, schedule: Q01DX009 (ip), vehicle: saline with Tween-80) was 110 % of control. The T/C (endpoint: median survival time, dose: 12.0 mg/kg/injection, schedule: Q01DX009 (ip), vehicle: saline with Tween-80) was 153 % of control.
`C=CCNC(=O)NCC=C` was tested, and the T/C (endpoint: mean survival time, dose: 25.0 mg/kg/injection, schedule: Q01DX009 (ip), vehicle: saline) was 101 % of control, the T/C (endpoint: mean survival time, dose: 50.0 mg/kg/injection, schedule: Q01DX009 (ip), vehicle: saline) was 103 % of control and the T/C (endpoint: mean survival time, dose: 100.0 mg/kg/injection, schedule: Q01DX009 (ip), vehicle: saline) was 97 % of control. For the same compound, the T/C (endpoint: mean survival time, dose: 200.0 mg/kg/injection, schedule: Q01DX009 (ip), vehicle: saline) was 105 % of control.
In the case of `CN(Cc1cnc2nc(N[Si](C)(C)C)nc(N[Si](C)(C)C)c2n1)c1ccc(C(=O)NC(CCC(=O)O[Si](C)(C)C)C(=O)O[Si](C)(C)C)cc1` (configuration not stated), the T/C (endpoint: mean survival time, dose: 1.0 mg/kg/injection, schedule: Q01DX009 (ip), vehicle: Klucel (hydroxypropylcellulose) (HPC)) is reported as 118 % of control, the T/C (endpoint: mean survival time, dose: 2.0 mg/kg/injection, schedule: Q01DX009 (ip), vehicle: saline) is reported as 173 % of control and the T/C (endpoint: mean survival time, dose: 4.0 mg/kg/injection, schedule: Q01DX009 (ip), vehicle: Klucel (hydroxypropylcellulose) (HPC)) is reported as 110 % of control. For the same compound, the T/C (endpoint: mean survival time, dose: 4.0 mg/kg/injection, schedule: Q01DX009 (ip), vehicle: saline) was 93 % of control.
For `O=c1[nH]cc(F)c(=O)[nH]1`, the T/C (endpoint: mean survival time, dose: 12.76 mg/kg/injection, schedule: Q01DX015 (ip), vehicle: carboxymethylcellulose (CMC)) was 100 % of control, the T/C (endpoint: mean survival time, dose: 19.43 mg/kg/injection, schedule: Q01DX015 (ip), vehicle: carboxymethylcellulose (CMC)) was 111 % of control and the T/C (endpoint: mean survival time, dose: 29.0 mg/kg/injection, schedule: Q01DX015 (ip), vehicle: carboxymethylcellulose (CMC)) was 113 % of control. For the same compound, the T/C (endpoint: mean survival time, dose: 79.5 mg/kg/injection, schedule: Q01DX001 (ip), vehicle: carboxymethylcellulose (CMC)) was 112 % of control, the T/C (endpoint: median survival time, dose: 8.4 mg/kg/injection, schedule: Q01DX009 (ip), vehicle: saline) was 105 % of control and the T/C (endpoint: median survival time, dose: 14.0 mg/kg/injection, schedule: Q01DX009 (ip), vehicle: saline) was 108 % of control. For the same compound, the T/C (endpoint: median survival time, dose: 23.0 mg/kg/injection, schedule: Q04DX003 (ip), vehicle: saline) was 108 % of control, the T/C (endpoint: median survival time, dose: 39.0 mg/kg/injection, schedule: Q01DX009 (ip), vehicle: saline) was 107 % of control and the T/C (endpoint: median survival time, dose: 39.0 mg/kg/injection, schedule: Q04DX003 (ip), vehicle: saline) was 118 % of control. The T/C (endpoint: median survival time, dose: 65.0 mg/kg/injection, schedule: Q01DX009 (ip), vehicle: saline) was 96 % of control, the T/C (endpoint: median survival time, dose: 108.0 mg/kg/injection, schedule: Q04DX003 (ip), vehicle: saline) was 156 % of control and the T/C (endpoint: median survival time, dose: 180.0 mg/kg/injection, schedule: Q04DX003 (ip), vehicle: saline) was 99 % of control.
`CCCCCCCCCCCCCCCCCCCCCC(=O)Nc1ccn(C2OC(CO)C(O)C2O)c(=O)n1` (configuration not stated) was tested, and the T/C (endpoint: median survival time, dose: 25.0 mg/kg/injection, schedule: Q01DX009 (ip), vehicle: saline with Tween-80) was 208 % of control, the T/C (endpoint: median survival time, dose: 50.0 mg/kg/injection, schedule: Q01DX009 (ip), vehicle: saline with Tween-80) was 162 % of control and the T/C (endpoint: median survival time, dose: 100.0 mg/kg/injection, schedule: Q01DX009 (ip), vehicle: saline with Tween-80) was 198 % of control. The T/C (endpoint: median survival time, dose: 200.0 mg/kg/injection, schedule: Q01DX009 (ip), vehicle: saline with Tween-80) was 250 % of control and the T/C (endpoint: median survival time, dose: 400.0 mg/kg/injection, schedule: Q01DX009 (ip), vehicle: saline with Tween-80) was 96 % of control.
`CN(N=O)C(=O)Nc1ccc(NC(=O)N(C)N=O)cc1` was tested, and the T/C (endpoint: mean survival time, dose: 4.5 mg/kg/injection, schedule: Q01DX001 (ip), vehicle: carboxymethylcellulose (CMC)) was 93 % of control, the T/C (endpoint: mean survival time, dose: 9.0 mg/kg/injection, schedule: Q01DX001 (ip), vehicle: carboxymethylcellulose (CMC)) was 98 % of control and the T/C (endpoint: mean survival time, dose: 18.0 mg/kg/injection, schedule: Q01DX001 (ip), vehicle: carboxymethylcellulose (CMC)) was 98 % of control.
With `CN(C)N=Nc1ccc(C(N)=O)cc1` the T/C [1] was 98 % of control, the T/C [2] was 107 % of control and the T/C (endpoint: median survival time, dose: 40.0 mg/kg/injection, schedule: Q01DX009 (ip), vehicle: saline with Tween-80) was 109 % of control.
With `COC(=O)c1ccccc1N=NN(C)C` the T/C [1] was 114 % of control and the T/C [2] was 97 % of control.
`CC(=O)NC1=C(N2CC2C)C(=O)C(NC(C)=O)=C(N2CC2C)C1=O` (configuration not stated) was tested, and the T/C (endpoint: mean survival time, dose: 2.5 mg/kg/injection, schedule: Q01DX009 (ip), vehicle: saline with Tween-80) was 118 % of control, the T/C (endpoint: mean survival time, dose: 2.5 mg/kg/injection, schedule: Q01DX009 (ip), vehicle: saline) was 111 % of control and the T/C (endpoint: mean survival time, dose: 5.0 mg/kg/injection, schedule: Q01DX009 (ip), vehicle: saline with Tween-80) was 120 % of control. The T/C (endpoint: mean survival time, dose: 5.0 mg/kg/injection, schedule: Q01DX009 (ip), vehicle: saline) was 114 % of control, the T/C (endpoint: mean survival time, dose: 10.0 mg/kg/injection, schedule: Q01DX009 (ip), vehicle: saline with Tween-80) was 94 % of control and the T/C (endpoint: mean survival time, dose: 10.0 mg/kg/injection, schedule: Q01DX009 (ip), vehicle: saline) was 97 % of control. The T/C (endpoint: mean survival time, dose: 20.0 mg/kg/injection, schedule: Q01DX009 (ip), vehicle: saline with Tween-80) was 88 % of control.
With `CC[n+]1c(-c2ccccc2)c2cc(N)ccc2c2ccc(N)cc21` the T/C (endpoint: mean survival time, dose: 1.25 mg/kg/injection, schedule: Q01DX Z (ip), vehicle: saline) was 104 % of control, the T/C (endpoint: mean survival time, dose: 2.5 mg/kg/injection, schedule: Q01DX Z (ip), vehicle: saline) was 100 % of control and the T/C (endpoint: mean survival time, dose: 5.0 mg/kg/injection, schedule: Q01DX Z (ip), vehicle: saline) was 101 % of control. The T/C (endpoint: mean survival time, dose: 7.5 mg/kg/injection, schedule: Q01DX Z (ip), vehicle: saline) was 100 % of control and the T/C (endpoint: mean survival time, dose: 15.0 mg/kg/injection, schedule: Q01DX Z (ip), vehicle: saline) was 86 % of control.
With `CN(C)CC(=O)c1ccc(O)c(O)c1` the T/C (endpoint: median survival time, dose: 100.0 mg/kg/injection, schedule: Q01DX005 (ip), vehicle: saline) was 101 % of control, the T/C (endpoint: median survival time, dose: 200.0 mg/kg/injection, schedule: Q01DX005 (ip), vehicle: saline) was 101 % of control and the T/C (endpoint: median survival time, dose: 400.0 mg/kg/injection, schedule: Q01DX005 (ip), vehicle: saline) was 98 % of control. For the same compound, the T/C (endpoint: median survival time, dose: 800.0 mg/kg/injection, schedule: Q01DX005 (ip), vehicle: saline) was 113 % of control.
